Biological target: T1, RPS6KB1 (p70S6K) (Homo sapiens, UniProt P23443)
T1 construct: purchased Thermo Fisher Scientific (Life Technologies) SelectScreen
Assay: SelectScreen Z'LYTE
Format: biochemical
Summary of the method: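 Percent values come from Thermo SelectScreen profiling of NU5455, combining activity and binding assays. CSF1R was run in Z'LYTE format at Km app ATP, and CAMK1 in Adapta format with ATP listed at 10.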

T1 sequence (P23443 whole entry): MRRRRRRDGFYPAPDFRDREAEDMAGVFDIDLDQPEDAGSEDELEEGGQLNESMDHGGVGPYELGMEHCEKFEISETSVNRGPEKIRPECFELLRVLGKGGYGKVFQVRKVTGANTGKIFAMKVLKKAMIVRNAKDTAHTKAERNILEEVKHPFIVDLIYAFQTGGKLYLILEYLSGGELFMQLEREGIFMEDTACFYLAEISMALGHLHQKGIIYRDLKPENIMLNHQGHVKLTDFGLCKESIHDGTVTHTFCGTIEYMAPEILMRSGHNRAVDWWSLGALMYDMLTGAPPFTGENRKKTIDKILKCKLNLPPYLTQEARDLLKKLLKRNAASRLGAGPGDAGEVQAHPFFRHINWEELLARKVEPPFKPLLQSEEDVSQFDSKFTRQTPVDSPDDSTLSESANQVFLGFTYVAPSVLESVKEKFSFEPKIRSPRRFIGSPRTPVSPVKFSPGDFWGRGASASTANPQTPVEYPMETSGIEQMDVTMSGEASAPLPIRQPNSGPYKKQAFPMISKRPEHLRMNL

With `CN(C(=O)CN1CCOCC1)c1ccc2sc3c(-c4cccc5c(=O)cc(N6CC7CCC(C6)O7)oc45)cccc3c2c1` [NU5455] the inhibition at 1 µM was -7.8%.

— article PMC6934184, “Selective DNA-PKcs inhibition extends the therapeutic index of localized radiotherapy and chemotherapy” (The Journal of Clinical Investigation, 2019)
